A word on the EC50: it is the concentration at which the effect is half-maximal. As a reminder, the Ki is the equilibrium dissociation constant of an inhibitor or competing ligand from its target. Low readings indicate higher affinity, high ones lower affinity. What is called IC50 is the concentration at which inhibition is half-maximal.

A short description of data set [1]: Cytotoxicity against mouse NIH/3T3 cells assessed as cell survival after 96 hrs by sulforhodamine-B assay. The format is cell-based. As to conditions: NIH3T3, 96 h. Background: Sulforhodamine B stains cellular protein and so reports cell mass.
Data set [2] concerns the target T1, Acetylcholinesterase (Electrophorus electricus, UniProt O42275). The data set can be described thus: Inhibition of Electrophorus electricus acetylcholinesterase using acetylthiocholine iodide as substrate preincubated for 20 mins followed by substrate addition measured for 30 mins by Ellman's method. (In general: Ellman's reagent forms a yellow product with free thiols.)

The target of data set [3] is T1, Acetylcholinesterase. The data set can be described thus: Uncompetitive Inhibition of Electrophorus electricus acetylcholinesterase using acetylthiocholine iodide as substrate preincubated for 20 mins followed by substrate addition measured for 30 mins by Ellman's method.
Data set [4] deals with T1, Acetylcholinesterase. The data set can be described thus: Competitive Inhibition of Electrophorus electricus acetylcholinesterase using acetylthiocholine iodide as substrate preincubated for 20 mins followed by substrate addition measured for 30 mins by Ellman's method.
Data set [5] in a line: Solubility of the compound in aqueous buffer. The format is physicochemical.
The target in data set [6] is Cholinesterase (Equus caballus, UniProt P81908). The data set can be described thus: Inhibition of equine serum butyrylcholinesterase using butyrylthiocholineidioide as substrate preincubated for 20 mins followed by substrate addition measured for 30 mins by Ellman's method.

Bounds are passed on as bounds.

T1 sequence (O42275 whole entry): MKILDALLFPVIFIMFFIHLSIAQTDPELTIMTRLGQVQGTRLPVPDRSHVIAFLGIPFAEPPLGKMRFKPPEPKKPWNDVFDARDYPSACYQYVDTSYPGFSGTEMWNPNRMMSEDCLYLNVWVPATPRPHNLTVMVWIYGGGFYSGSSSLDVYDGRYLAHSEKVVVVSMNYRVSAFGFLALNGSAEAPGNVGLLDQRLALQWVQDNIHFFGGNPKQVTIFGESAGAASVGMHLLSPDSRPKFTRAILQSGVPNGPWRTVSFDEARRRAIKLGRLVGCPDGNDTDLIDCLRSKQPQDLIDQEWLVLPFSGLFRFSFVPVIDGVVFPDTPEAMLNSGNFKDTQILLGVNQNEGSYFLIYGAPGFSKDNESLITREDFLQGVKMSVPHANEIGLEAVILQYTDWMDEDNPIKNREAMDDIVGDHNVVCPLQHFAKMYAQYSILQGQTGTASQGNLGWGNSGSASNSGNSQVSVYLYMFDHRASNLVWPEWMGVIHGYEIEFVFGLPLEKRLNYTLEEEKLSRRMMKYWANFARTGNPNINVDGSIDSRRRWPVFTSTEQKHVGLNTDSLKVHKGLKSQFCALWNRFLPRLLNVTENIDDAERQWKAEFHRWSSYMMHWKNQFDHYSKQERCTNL
Chain of Cholinesterase (P81908 whole entry): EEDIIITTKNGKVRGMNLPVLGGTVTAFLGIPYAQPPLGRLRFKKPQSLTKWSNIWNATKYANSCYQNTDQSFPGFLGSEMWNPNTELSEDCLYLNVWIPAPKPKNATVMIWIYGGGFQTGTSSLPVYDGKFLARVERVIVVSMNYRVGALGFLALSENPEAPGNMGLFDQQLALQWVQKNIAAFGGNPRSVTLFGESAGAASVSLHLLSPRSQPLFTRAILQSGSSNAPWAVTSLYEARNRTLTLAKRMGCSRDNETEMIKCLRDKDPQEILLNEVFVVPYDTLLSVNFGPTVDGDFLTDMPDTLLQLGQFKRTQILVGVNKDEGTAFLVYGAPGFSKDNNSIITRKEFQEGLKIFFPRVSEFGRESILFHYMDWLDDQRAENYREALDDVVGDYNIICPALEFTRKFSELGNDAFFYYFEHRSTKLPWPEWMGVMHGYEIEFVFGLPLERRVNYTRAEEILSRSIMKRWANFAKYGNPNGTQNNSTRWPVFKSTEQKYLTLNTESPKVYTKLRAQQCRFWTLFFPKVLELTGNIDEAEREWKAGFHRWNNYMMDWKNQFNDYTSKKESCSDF

`C=C(C)[C@@H]1CC[C@]2(C)[C@H](CC[C@@H]3[C@H]4[C@H]5OC[C@@]4(CCC5(C)C)CC[C@]32C)[C@@]1(C)CCC(=O)O`: the EC50 in data set [1] was more than 30 µM. In addition, in data set [2], affinity was put at a Ki of 31.8 µM.

In the case of `C#CCOC(=O)CC[C@]1(C)[C@H]2CC[C@@H]3[C@H]4[C@H]5OC[C@@]4(CCC5(C)C)CC[C@@]3(C)[C@]2(C)CC[C@H]1C(=C)C`, the Ki worked out at 2.48 µM in data set [3] and 3.33 µM in data set [4]. In addition, the EC50 in data set [1] is more than 30 µM.

Take `C#CCOC(=O)C[C@]1(C)[C@H]2CC[C@@H]3[C@H]4[C@H]5OC[C@@]4(CCC5(C)C)CC[C@@]3(C)[C@]2(C)CC[C@H]1C(C)(C)C(=O)OCC#C`: the Ki in data set [3] came to 4.63 µM; in data set [4], 10.5 µM. For the same compound, in data set [1], the EC50 came to 7 µM.

Take `C=CCCOC(=O)C[C@]1(C)[C@H]2CC[C@@H]3[C@H]4[C@H]5OC[C@@]4(CCC5(C)C)CC[C@@]3(C)[C@]2(C)CC[C@H]1C(C)(C)C(=O)OCCC=C`: the EC50 in data set [1] was more than 30 µM.

For `C=CCCOC(=O)CC[C@]1(C)[C@H]2CC[C@@H]3[C@H]4[C@H]5OC[C@@]4(CCC5(C)C)CC[C@@]3(C)[C@]2(C)CC[C@H]1C(=C)C`, the solubility result in data set [5] was “Insoluble”.

For the compound `N[C@@H](CO)C(=O)O` [SERINE], the IC50 was found to be 0.016 µM in data set [6] and 0.015 µM in data set [2].

These data come from ChEMBL document CHEMBL3588756, “Allobetulin derived seco-oleananedicarboxylates act as inhibitors of acetylcholinesterase” (Bioorg Med Chem Lett, 2015).
